One block for each molecule: values may come before it.
Assays:
[1] = tested on: Tyrosine-protein kinase ABL1 (Homo sapiens), P00519 [H396P]; experiment: Selectivity interaction (KinomeScan (DiscoverX)) EUB0001079a ABL1; details: at 1 µM
[2] = target: Serine/threonine-protein kinase B-raf (Homo sapiens) (UniProt P15056); experiment: (§1) Selectivity interaction (KinomeScan (DiscoverX)) EUB0001079a BRAF; details: at 1 µM
[3] = tested on: Serine/threonine-protein kinase B-raf (Homo sapiens), P15056 [V600E]; experiment: as §1; details: at 1 µM
Sequence of Serine/threonine-protein kinase B-raf (Homo sapiens), P15056 [V600E] (P15056 whole entry V600E): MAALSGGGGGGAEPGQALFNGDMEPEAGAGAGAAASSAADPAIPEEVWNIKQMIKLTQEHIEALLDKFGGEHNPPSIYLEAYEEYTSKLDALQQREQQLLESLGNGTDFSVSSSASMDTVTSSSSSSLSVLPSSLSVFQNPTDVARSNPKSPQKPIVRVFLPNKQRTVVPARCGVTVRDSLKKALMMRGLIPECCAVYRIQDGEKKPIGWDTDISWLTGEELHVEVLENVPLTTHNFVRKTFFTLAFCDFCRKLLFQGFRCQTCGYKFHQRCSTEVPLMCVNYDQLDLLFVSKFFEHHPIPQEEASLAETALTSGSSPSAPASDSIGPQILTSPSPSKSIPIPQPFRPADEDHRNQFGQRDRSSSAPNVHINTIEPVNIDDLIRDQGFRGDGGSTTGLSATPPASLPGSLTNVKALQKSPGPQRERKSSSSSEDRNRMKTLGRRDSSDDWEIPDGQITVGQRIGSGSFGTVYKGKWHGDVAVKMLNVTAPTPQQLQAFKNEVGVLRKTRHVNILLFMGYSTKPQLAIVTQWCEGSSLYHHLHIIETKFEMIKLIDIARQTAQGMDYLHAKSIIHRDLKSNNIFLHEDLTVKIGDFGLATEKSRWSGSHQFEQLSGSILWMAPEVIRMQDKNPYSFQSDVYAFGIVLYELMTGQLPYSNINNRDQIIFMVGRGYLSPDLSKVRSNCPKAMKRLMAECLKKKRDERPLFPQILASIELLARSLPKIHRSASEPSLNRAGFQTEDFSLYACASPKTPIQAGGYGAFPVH

[4] = target: T1, Phosphatidylinositol 5-phosphate 4-kinase type-2 gamma (Homo sapiens) (UniProt Q8TBX8); experiment: Selectivity interaction (ActivX KiNativ screen (kinase selectivity in THP-1 cell lysates)) EUB0000639a PIP4K2C; assay type: subcellular; details: lysate, at 0.04 µM
T1 sequence (whole entry): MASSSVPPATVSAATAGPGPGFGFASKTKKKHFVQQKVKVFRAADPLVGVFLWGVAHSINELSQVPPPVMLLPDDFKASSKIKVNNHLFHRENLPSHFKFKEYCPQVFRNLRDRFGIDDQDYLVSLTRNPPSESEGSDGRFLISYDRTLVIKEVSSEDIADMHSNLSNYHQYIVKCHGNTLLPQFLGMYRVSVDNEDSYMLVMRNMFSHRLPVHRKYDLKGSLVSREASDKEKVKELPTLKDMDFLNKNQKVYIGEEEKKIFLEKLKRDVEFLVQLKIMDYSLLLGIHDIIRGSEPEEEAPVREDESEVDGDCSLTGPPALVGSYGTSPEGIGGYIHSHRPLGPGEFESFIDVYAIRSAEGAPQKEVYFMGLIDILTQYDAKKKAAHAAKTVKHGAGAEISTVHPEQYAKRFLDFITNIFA

[5] = target: T2, Inhibitor of nuclear factor kappa-B kinase subunit beta (Homo sapiens) (UniProt O14920); experiment: Selectivity interaction (KinomeScan (DiscoverX)) EUB0000666a IKBKB; details: at 10 µM
T2 sequence (whole entry): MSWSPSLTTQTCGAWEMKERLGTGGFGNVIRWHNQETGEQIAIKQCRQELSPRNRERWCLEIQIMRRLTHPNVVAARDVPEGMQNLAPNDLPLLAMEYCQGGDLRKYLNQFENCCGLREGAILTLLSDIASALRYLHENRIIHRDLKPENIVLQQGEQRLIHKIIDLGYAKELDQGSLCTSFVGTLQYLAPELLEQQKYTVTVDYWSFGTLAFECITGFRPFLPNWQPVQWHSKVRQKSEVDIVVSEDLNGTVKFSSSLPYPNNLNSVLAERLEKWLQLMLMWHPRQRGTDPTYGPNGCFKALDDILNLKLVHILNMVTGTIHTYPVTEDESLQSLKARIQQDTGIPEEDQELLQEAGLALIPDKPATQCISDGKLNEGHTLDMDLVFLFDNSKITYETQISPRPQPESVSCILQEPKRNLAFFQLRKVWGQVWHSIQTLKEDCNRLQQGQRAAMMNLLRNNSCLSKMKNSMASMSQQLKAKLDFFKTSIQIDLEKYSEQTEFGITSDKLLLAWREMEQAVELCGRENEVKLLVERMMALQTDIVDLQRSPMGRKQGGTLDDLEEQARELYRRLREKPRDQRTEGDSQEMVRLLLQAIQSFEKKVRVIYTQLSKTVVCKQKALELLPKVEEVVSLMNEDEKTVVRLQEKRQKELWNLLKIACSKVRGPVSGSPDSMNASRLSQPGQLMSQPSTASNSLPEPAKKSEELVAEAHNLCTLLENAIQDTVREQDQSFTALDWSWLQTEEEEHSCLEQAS

[6] = target: T3, Serine/threonine-protein kinase ULK1 (Homo sapiens) (UniProt O75385); experiment: Selectivity interaction (KinomeScan (DiscoverX)) EUB0000092b ULK1; details: at 10 µM
T3 sequence (whole entry): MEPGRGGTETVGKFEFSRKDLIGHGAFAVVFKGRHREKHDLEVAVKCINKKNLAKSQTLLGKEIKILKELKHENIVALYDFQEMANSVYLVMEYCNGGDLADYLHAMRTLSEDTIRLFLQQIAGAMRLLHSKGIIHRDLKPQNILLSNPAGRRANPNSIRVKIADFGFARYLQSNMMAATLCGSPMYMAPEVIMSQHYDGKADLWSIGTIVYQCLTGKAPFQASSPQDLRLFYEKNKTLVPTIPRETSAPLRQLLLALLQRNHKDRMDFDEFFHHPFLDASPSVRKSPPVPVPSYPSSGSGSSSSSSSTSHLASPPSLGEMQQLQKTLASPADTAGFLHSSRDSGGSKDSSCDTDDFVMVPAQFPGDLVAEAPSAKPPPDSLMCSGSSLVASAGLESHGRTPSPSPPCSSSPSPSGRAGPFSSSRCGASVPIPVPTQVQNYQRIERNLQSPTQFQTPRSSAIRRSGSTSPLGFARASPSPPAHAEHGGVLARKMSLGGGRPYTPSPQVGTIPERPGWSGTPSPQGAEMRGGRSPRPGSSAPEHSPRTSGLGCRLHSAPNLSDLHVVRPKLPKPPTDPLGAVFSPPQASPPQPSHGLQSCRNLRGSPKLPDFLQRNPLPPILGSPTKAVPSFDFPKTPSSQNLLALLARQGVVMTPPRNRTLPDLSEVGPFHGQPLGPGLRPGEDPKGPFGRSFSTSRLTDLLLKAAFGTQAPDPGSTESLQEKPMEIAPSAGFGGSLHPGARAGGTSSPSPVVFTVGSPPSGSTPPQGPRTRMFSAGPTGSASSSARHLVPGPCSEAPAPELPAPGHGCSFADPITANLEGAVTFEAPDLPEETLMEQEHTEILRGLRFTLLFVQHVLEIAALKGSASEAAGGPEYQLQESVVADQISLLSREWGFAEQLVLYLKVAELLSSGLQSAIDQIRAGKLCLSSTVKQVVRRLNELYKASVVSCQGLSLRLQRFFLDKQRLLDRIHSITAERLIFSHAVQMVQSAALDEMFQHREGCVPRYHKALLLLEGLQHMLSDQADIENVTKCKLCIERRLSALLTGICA

Sequence of Serine/threonine-protein kinase B-raf (Homo sapiens) (P15056 whole entry): as the sequence (P15056 whole entry V600E) above, with E600V counted along it

Compound: Nc1cnc(N2CCc3cc(S(=O)(=O)Nc4c(F)cc(Cl)cc4F)cc(N4CCCC4=O)c32)nc1 [TP-020n]
% of control [1]: 86%
% of control [2]: 98%
% of control [3]: 100%

% of inhibition [4]: 6.2%
Compound: CC[C@@H]1[C@H](F)C(=O)N[C@@H]1COc1nccc2cc(C(N)=O)c(OC)cc12 [ZIMLOVISERTIB]

Compound: O=C(NOC[C@H](O)CO)c1ccc(F)c(F)c1Nc1ccc(I)cc1F
% of control [5]: 79%

Compound: CCC(=O)N1CCN(c2ccc(-n3c(=O)ccc4cnc5ccc(-c6cnc7ccccc7c6)cc5c43)cc2C(F)(F)F)CC1
% of control [6]: 100%
